Data on 44 compounds can be found in patent US20230079819A1, “COMPOUNDS AND USES THEREOF” (Foghorn Therapeutics Inc., priority 2019, published 2023).

One assay addresses T1, BRG-1 (Homo sapiens, UniProt P51532).
T1 construct: made in house; host or cells: High Five insect cells
In words: ATPase catalytic activity of BRG-1, ADP-Glo in vitro biochemical assay. To be noted: ATPase catalytic activity, 30 nM BRG-1, 400 μM ATP, read-out: BRG1 IP50. (ADP-Glo first removes unused ATP, then detects ADP through luciferase.)

Another assay deals with T2, BRM (Homo sapiens, UniProt P51531).
T2 construct: made in house; host or cells: High Five insect cells
T2 sequence (P51531 whole entry): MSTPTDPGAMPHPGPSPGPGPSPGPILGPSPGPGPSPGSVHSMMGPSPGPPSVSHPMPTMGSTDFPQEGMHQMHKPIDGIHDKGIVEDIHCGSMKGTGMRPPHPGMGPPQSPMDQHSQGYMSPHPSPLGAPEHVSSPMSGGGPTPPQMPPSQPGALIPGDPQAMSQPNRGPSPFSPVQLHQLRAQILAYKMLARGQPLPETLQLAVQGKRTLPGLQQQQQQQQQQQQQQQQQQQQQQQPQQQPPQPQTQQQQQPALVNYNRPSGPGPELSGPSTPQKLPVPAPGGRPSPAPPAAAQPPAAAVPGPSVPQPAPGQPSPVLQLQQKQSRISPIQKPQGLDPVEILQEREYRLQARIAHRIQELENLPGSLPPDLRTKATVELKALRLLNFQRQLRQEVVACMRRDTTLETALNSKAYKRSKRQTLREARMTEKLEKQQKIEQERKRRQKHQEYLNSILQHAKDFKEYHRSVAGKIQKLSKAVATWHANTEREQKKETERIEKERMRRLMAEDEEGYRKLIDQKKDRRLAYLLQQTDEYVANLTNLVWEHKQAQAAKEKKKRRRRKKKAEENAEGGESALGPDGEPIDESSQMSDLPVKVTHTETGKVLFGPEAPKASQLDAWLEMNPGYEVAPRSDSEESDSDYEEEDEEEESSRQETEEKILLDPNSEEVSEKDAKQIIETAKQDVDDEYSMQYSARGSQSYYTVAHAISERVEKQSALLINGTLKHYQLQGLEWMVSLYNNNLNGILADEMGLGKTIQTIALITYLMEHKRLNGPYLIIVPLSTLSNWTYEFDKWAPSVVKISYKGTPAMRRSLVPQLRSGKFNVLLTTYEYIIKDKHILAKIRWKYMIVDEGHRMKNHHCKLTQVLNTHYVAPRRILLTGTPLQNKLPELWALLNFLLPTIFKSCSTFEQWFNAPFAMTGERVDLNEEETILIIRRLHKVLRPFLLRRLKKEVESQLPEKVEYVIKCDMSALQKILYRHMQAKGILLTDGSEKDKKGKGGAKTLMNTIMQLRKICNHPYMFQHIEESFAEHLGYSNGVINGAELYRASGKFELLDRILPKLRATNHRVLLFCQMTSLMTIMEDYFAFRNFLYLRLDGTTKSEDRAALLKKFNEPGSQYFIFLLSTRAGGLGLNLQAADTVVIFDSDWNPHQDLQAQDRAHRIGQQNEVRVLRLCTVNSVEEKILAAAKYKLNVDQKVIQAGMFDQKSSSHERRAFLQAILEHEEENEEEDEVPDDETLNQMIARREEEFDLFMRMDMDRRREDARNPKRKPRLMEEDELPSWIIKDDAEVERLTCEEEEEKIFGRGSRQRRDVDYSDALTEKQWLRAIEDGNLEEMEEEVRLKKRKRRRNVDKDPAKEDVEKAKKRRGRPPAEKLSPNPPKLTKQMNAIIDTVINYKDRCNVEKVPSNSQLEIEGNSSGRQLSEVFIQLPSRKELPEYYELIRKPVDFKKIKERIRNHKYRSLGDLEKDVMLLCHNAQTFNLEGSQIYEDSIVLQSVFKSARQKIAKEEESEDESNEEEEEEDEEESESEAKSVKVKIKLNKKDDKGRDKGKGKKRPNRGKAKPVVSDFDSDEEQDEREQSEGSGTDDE
In words: ATPase catalytic activity of BRM, ADP-Glo in vitro biochemical assay. To be noted: ATPase catalytic activity, 30 nM BRM, 400 μM ATP, read-out: BRM IP50.

Where only a bound is given, the exact number is not on record here.

T1 sequence (P51532 whole entry): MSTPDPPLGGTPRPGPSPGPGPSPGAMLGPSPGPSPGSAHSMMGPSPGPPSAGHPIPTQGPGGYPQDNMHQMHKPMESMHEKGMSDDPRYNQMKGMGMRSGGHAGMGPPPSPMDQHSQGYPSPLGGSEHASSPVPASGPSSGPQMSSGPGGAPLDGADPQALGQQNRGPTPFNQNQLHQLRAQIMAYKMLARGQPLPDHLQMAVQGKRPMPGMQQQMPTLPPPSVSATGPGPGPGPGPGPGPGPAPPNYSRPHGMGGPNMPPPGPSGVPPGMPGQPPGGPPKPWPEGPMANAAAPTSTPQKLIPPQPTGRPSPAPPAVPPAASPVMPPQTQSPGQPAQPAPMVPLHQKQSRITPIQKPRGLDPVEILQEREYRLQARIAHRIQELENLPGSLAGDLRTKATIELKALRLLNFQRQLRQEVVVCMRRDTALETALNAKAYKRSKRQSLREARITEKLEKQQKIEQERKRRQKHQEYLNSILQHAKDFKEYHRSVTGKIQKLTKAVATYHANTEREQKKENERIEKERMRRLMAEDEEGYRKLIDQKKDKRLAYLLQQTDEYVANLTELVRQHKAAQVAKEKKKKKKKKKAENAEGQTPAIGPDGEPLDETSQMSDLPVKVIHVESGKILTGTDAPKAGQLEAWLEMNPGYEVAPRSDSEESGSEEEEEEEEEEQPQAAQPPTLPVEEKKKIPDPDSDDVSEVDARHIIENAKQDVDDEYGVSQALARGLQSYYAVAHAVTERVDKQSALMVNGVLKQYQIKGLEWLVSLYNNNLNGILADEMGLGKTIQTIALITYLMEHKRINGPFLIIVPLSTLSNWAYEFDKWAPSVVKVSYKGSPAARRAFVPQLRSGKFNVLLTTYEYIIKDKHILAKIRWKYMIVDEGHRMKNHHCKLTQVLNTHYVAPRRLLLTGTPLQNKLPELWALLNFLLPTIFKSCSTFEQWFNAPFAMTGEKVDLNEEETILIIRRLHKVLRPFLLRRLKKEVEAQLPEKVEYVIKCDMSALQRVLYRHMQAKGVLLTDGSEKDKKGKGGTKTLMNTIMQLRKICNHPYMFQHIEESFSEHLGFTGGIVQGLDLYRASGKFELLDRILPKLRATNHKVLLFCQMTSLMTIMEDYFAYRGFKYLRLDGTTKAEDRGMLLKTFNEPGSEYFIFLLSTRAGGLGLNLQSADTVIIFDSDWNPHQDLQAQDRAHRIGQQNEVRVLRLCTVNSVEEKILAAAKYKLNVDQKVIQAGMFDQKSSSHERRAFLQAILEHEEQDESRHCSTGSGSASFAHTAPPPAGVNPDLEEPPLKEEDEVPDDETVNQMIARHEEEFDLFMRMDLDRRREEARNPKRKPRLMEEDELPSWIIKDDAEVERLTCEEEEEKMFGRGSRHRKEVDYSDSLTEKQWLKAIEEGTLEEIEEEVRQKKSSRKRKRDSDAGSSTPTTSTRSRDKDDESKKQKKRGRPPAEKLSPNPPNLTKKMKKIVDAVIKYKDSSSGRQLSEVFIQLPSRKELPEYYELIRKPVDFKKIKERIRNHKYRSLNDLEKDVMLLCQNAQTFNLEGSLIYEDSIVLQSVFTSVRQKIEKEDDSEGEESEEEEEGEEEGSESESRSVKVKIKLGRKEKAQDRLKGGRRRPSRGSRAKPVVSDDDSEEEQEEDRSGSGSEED

As for `COC[C@H](NC(=O)c1ccn(C2(C#N)CCC2)c1)C(=O)Nc1nc(-c2cccc(N3C[C@@H](C)O[C@@H](C)C3)n2)cs1` [Compound 730], the IC50 at BRG-1 and on BRM was under 10 nM each time.

Consider `C[C@@H]1CN(c2cccc(-c3csc(NC(=O)CNC(=O)c4ccn(C5(C#N)CCC5)c4)n3)n2)C[C@H](C)O1` [Compound 731], for which the IC50 at BRG-1 and on BRM was under 10 nM throughout.

Regarding `COC[C@H](NC(=O)c1ccn(S(C)(=O)=O)c1)C(=O)Nc1nc(-c2ccc3c(c2)C(F)(F)CC3)cs1` [Compound 732], the IC50 at BRG-1 and at BRM was over 10 nM each time.

As to `COC[C@H](NC(=O)c1ccn(S(C)(=O)=O)c1)C(=O)Nc1nc(-c2cc(F)c3c(c2)C(F)(F)CC3)cs1` [Compound 733], the IC50 on BRG-1 and at BRM was under 10 nM in each case.

Consider `COC[C@H](NC(=O)c1ccn(S(C)(=O)=O)c1)C(=O)Nc1nc(-c2cc(C)cc(N3C[C@@H](C)O[C@@H](C)C3)n2)cs1` [Compound 734], for which the IC50 at BRG-1 and on BRM was under 10 nM throughout.

Consider `COC[C@H](NC(=O)c1ccn(S(C)(=O)=O)c1)C(=O)Nc1nc(-c2ccc3c(c2)CCN3C)cs1` [Compound 735], for which the IC50 at BRG-1 and on BRM was over 10 nM each time.

As for `C[C@@H]1CN(c2cccc(-c3csc(NC(=O)CNC(=O)c4ccn(C5(CF)COC5)c4)n3)n2)C[C@H](C)O1` [Compound 736], the IC50 at BRG-1 and on BRM was under 10 nM throughout.

On to `C[C@@H]1CN(c2cccc(-c3csc(NC(=O)CNC(=O)c4ccn(C5(C(F)F)CC5)c4)n3)n2)C[C@H](C)O1` [Compound 737], for which the IC50 on BRG-1 and at BRM was under 10 nM throughout.

`COC[C@H](NC(=O)c1ccn(S(C)(=O)=O)c1)C(=O)Nc1nc(-c2cc(F)cc(-c3cnn(C)n3)c2)cs1` [Compound 738]: the IC50 on BRG-1 and at BRM was under 10 nM each time.

For the compound `COC[C@H](NC(=O)c1ccn(C(C)(C)C#N)c1)C(=O)Nc1nc(-c2cc(F)cc(-c3cnn(C)n3)c2)cs1` [Compound 739], the IC50 at BRG-1 and at BRM was under 10 nM each time.

As to `COC[C@H](NC(=O)c1ccn(C(C)(C)C#N)c1)C(=O)Nc1nc(-c2cc(C)cc(N3C[C@@H](C)O[C@@H](C)C3)n2)cs1` [Compound 740], the IC50 at BRG-1 and at BRM was under 10 nM each time.

`CS(=O)(=O)n1ccc(C(=O)NCC(=O)Nc2nc(-c3cccc(C45CCOCC4C5)c3)cs2)c1` (stereo not shown) [Compound 743]: the IC50 at BRG-1 and on BRM was over 10 nM each time.

For the compound `CC(C)(C)n1ccc(C(=O)NCC(=O)Nc2nc(-c3cccc(C45CCOCC4C5)c3)cs2)c1` (stereo not shown) [Compound 744], the IC50 on BRG-1 and at BRM was over 10 nM throughout.

`CS(=O)(=O)n1ccc(C(=O)NCC(=O)Nc2nc(-c3cccc(N4CC[C@H]5COC[C@@H]5C4)n3)cs2)c1` [Compound 745]: the IC50 at BRG-1 and at BRM was under 10 nM in each case.

As for `CS(=O)(=O)n1ccc(C(=O)NCC(=O)Nc2nc(-c3cccc(N4CC[C@@H]5COC[C@H]5C4)n3)cs2)c1` [Compound 746], the IC50 at BRG-1 and on BRM was under 10 nM in each case.

In the case of `C[C@@H]1CN(c2cccc(-c3csc(NC(=O)CNC(=O)c4ccn(C(C)(C)C(F)F)c4)n3)n2)C[C@H](C)O1` [Compound 748], the IC50 at BRG-1 and at BRM was under 10 nM throughout.

As for `CC(F)C(C)(F)n1ccc(C(=O)NCC(=O)Nc2nc(-c3cccc(N4C[C@@H](C)O[C@@H](C)C4)n3)cs2)c1` (stereo partly shown) [Compound 749], the IC50 on BRG-1 and at BRM was over 100 nM in each case.

Consider `CS(=O)(=O)n1ccc(C(=O)NCC(=O)Nc2nc(-c3cccc(C45CCOCC4C5)n3)cs2)c1` (stereo not shown) [Compound 750, 1-methylsulfonyl-N-[2-[[4-[6-(3-oxabicyclo[4.1.0]heptan-6-yl)-2-pyridyl]thiazol-2-yl]amino]-2-oxo-ethyl]pyrrole-3-carboxamide], for which the IC50 on BRG-1 and on BRM was over 10 nM in each case.

Take `CC(C)(C)n1ccc(C(=O)NCC(=O)Nc2nc(-c3cccc(C45CCOCC4C5)n3)cs2)c1` (stereo not shown) [Compound 751]: the IC50 at BRG-1 and on BRM was over 10 nM throughout.

Take `COC[C@H](NC(=O)c1ccn(S(C)(=O)=O)c1)C(=O)Nc1nc(-c2cccc([C@]34CCOC[C@H]3C4)n2)cs1` [Compound 755]: the IC50 on BRG-1 and on BRM was over 10 nM throughout.

For `COC[C@H](NC(=O)c1ccn(S(C)(=O)=O)c1)C(=O)Nc1nc(-c2cccc([C@@]34CCOC[C@@H]3C4)n2)cs1` [Compound 756], the IC50 is over 100 nM at BRG-1 and over 10 nM on BRM.

Take `CN(C)[C@H]1CCN(c2cccc(-c3csc(NC(=O)CNC(=O)c4ccn(S(C)(=O)=O)c4)n3)n2)CC1(F)F` [Compound 757]: the IC50 on BRG-1 and at BRM was over 100 nM throughout.

`COC[C@H](NC(=O)c1ccn(S(C)(=O)=O)c1)C(=O)Nc1nc(-c2cc(F)c3c(c2)CCN3C)cs1` [Compound 758]: the IC50 on BRG-1 and on BRM was under 10 nM in each case.

`COC[C@@H](NC(=O)c1ccn(S(C)(=O)=O)c1)C(=O)Nc1nc(-c2cc(F)c3c(c2)CCN3C)cs1` [Compound 759]: the IC50 on BRG-1 and on BRM was over 10 nM each time.

Take `CN[C@H]1CCN(c2cccc(-c3csc(NC(=O)CNC(=O)c4ccn(S(C)(=O)=O)c4)n3)n2)CC1(F)F` [Compound 760]: the IC50 on BRG-1 and at BRM was over 100 nM throughout.

Regarding `CN(C)[C@@H]1CCN(c2cccc(-c3csc(NC(=O)CNC(=O)c4ccn(S(C)(=O)=O)c4)n3)n2)CC1(F)F` [Compound 762], the IC50 on BRG-1 and on BRM was over 10 nM in each case.

On to `CN[C@@H]1CCN(c2cccc(-c3csc(NC(=O)CNC(=O)c4ccn(S(C)(=O)=O)c4)n3)n2)CC1(F)F` [Compound 763, N-[2-[[4-[6-[(4R)-3,3-difluoro-4-(methylamino)-1-piperidyl]-2-pyridyl]thiazol-2-yl]amino]-2-oxo-ethyl]-1-methylsulfonyl-pyrrole-3-carboxamide], for which the IC50 at BRG-1 and on BRM was under 10 nM each time.

In the case of `CS(=O)(=O)n1ccc(C(=O)NCC(=O)Nc2nc(-c3cccc(N4CC[C@H]5OCC[C@@H]5C4)n3)cs2)c1` [Compound 764], the IC50 on BRG-1 and on BRM was under 10 nM in each case.

Turning to `CCCOC(=O)N1CCC(c2csc(NC(=O)CNC(=O)c3ccn(S(C)(=O)=O)c3)n2)CC1` [Compound 765, propyl 4-[2-[[2-[(1-methylsulfonylpyrrole-3-carbonyl)amino]acetyl]amino]thiazol-4-yl]piperidine-1-carboxylate], the IC50 was over 100 nM on BRG-1 and over 10 nM on BRM.

Consider `CS(=O)(=O)n1ccc(C(=O)NCC(=O)Nc2nc(-c3cccc(N4CC[C@@H]5OCC[C@H]5C4)n3)cs2)c1` [Compound 766], for which the IC50 on BRG-1 and at BRM was under 10 nM each time.

Take `C[C@@H]1CN(c2cccc(-c3csc(NC(=O)[C@H](C)NC(=O)c4ccn(S(C)(=O)=O)c4)n3)n2)C[C@H](C)O1` [Compound 767]: the values for the IC50 at BRG-1 and at BRM were over 10 nM and under 10 nM, respectively.

For `C[C@@H]1CN(c2cccc(-c3csc(NC(=O)[C@@H](C)NC(=O)c4ccn(S(C)(=O)=O)c4)n3)n2)C[C@H](C)O1` [Compound 768], the IC50 on BRG-1 and at BRM was over 100 nM in each case.

With `C[C@@H]1CN(c2cccc(-c3csc(NC(=O)[C@H](C)NC(=O)c4ccn(C(C)(C)C)c4)n3)n2)C[C@H](C)O1` [Compound 769], the IC50 at BRG-1 and on BRM was over 10 nM in each case.

As for `CCCOC(=O)N1CCC[C@H](c2csc(NC(=O)CNC(=O)c3ccn(S(C)(=O)=O)c3)n2)C1` [Compound 771], the IC50 on BRG-1 and at BRM was over 10 nM each time.

As to `COC[C@H](NC(=O)c1ccn(S(C)(=O)=O)c1)C(=O)Nc1nc(-c2cccc(N3CC[C@H]4COC[C@@H]4C3)n2)cs1` [Compound 772], the IC50 at BRG-1 and at BRM was under 10 nM in each case.

As for `COC[C@H](NC(=O)c1ccn(S(C)(=O)=O)c1)C(=O)Nc1nc(-c2cccc(N3CC[C@@H]4COC[C@H]4C3)n2)cs1` [Compound 773], the IC50 on BRG-1 and on BRM was under 10 nM in each case.

Consider `COC[C@H](NC(=O)c1ccn(S(C)(=O)=O)c1)C(=O)Nc1nc(-c2cccc(N3CC[C@H]4OCC[C@@H]4C3)n2)cs1` [Compound 774], for which the IC50 at BRG-1 and at BRM was under 10 nM in each case.

On to `COC[C@H](NC(=O)c1ccn(S(C)(=O)=O)c1)C(=O)Nc1nc(-c2cccc(N3CC[C@@H]4OCC[C@H]4C3)n2)cs1` [Compound 775], for which the results for the IC50 at BRG-1 and on BRM were over 10 nM and under 10 nM, respectively.

Consider `CS(=O)(=O)n1ccc(C(=O)NCC(=O)Nc2nc(-c3cccc(C4CCCOC4)c3)cs2)c1` (stereo not shown) [Compound 776, 1-methylsulfonyl-N-[2-oxo-2-[[4-(3-tetrahydropyran-3-ylphenyl)thiazol-2-yl]amino]ethyl]pyrrole-3-carboxamide], for which the IC50 at BRG-1 and on BRM was over 10 nM each time.

With `C[C@@H]1CN(c2cccc(-c3csc(NC(=O)CNC(=O)c4ccn(C(C)(C)C)n4)n3)c2)C[C@H](C)O1` [Compound 777], the IC50 at BRG-1 and at BRM was over 10 nM in each case.

Regarding `C[C@@H]1CN(c2cccc(-c3csc(NC(=O)CNC(=O)c4cn(C(C)(C)CO)cn4)n3)n2)C[C@H](C)O1` [Compound 778], the results for the IC50 at BRG-1 and at BRM were over 100 nM and over 10 nM, respectively.

With `Cn1ccc(-c2cccc(-c3csc(NC(=O)CNC(=O)c4cn(C5(C#N)CC5)cn4)n3)c2)n1` [Compound 780], the IC50 at BRG-1 and at BRM was over 100 nM in each case.

Consider `C[C@@H]1CN(c2cccc(-c3csc(NC(=O)CNC(=O)c4cn(C5(C#N)CC5)cn4)n3)n2)C[C@H](C)O1` [Compound 781], for which the IC50 on BRG-1 was over 100 nM; on BRM, over 10 nM.

As for `Cn1ccc2ccc(-c3csc(NC(=O)CNC(=O)c4ncn(C56CC(C5)C6)n4)n3)cc2c1=O` [Compound 782], the IC50 at BRG-1 and at BRM was over 100 nM each time.
